Target: ATP-binding cassette sub-family C member 2 (Rattus norvegicus, UniProt Q63120)
Experiment: TP_TRANSPORTER: efflux in isolated rat hepatocytes (Wistar/TR-)
Assay type: functional, cell-based, Hepatocyte

ATP-binding cassette sub-family C member 2, sequence (Q63120 whole entry): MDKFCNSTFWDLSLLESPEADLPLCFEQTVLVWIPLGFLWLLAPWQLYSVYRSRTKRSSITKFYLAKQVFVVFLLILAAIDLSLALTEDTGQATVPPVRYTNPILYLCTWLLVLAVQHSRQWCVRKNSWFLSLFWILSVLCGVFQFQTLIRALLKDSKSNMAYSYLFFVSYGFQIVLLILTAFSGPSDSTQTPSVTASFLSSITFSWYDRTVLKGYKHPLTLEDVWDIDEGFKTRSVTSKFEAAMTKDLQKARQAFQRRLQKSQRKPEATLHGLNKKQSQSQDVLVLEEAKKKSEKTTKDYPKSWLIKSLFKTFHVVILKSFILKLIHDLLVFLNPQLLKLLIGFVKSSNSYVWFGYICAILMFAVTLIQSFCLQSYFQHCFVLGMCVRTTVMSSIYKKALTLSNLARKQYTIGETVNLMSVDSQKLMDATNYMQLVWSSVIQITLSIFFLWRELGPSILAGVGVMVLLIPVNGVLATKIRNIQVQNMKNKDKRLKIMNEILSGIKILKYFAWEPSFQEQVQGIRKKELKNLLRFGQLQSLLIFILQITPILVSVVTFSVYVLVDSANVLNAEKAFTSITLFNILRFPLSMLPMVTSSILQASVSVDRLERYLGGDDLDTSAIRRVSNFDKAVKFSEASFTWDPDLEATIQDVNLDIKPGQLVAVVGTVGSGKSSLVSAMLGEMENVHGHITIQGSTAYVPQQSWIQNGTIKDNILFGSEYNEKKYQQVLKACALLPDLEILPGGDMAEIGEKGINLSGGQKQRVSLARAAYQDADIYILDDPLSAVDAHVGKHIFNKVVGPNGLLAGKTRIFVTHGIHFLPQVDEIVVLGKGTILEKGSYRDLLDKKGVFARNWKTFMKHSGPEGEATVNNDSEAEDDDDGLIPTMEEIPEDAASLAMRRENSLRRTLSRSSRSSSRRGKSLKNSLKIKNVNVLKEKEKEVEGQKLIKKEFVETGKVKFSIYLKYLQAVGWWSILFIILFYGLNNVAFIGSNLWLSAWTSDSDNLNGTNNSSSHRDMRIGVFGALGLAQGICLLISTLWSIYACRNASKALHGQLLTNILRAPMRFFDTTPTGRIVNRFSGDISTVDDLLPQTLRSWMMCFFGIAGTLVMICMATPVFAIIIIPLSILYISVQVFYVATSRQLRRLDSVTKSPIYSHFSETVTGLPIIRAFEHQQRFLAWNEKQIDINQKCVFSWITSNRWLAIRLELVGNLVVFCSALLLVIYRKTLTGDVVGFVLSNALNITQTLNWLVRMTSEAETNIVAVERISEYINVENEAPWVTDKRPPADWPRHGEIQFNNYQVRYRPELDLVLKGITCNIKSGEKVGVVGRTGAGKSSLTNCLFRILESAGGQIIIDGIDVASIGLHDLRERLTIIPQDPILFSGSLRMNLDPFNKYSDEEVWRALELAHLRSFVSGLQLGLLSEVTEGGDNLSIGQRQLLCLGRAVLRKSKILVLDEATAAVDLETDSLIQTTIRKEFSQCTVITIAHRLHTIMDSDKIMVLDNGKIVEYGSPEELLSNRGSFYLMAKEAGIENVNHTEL

- Activity: substrate []
Compound: CCCCCC1OC(O)CC1SC[C@H](NC(=O)CC[C@H](N)C(=O)O)C(=O)NCC(=O)O (stereo partly specified)
